Calls of active or inactive are those of the source.
Assays:
[1] = target: T1, Microphthalmia-associated transcription factor (Homo sapiens, UniProt O75030); test: reducers of TRPM1 reporter luminescence, concentration series – cell-based, SK-MEL-5, cherry-picked, set 3, MITF inhibitor project, dose response (AID 493073); type: functional;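 also: SK-MEL-5 melanoma cells with luciferase driven by the MITF target TRPM1 promoter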
T1 sequence (O75030 whole entry): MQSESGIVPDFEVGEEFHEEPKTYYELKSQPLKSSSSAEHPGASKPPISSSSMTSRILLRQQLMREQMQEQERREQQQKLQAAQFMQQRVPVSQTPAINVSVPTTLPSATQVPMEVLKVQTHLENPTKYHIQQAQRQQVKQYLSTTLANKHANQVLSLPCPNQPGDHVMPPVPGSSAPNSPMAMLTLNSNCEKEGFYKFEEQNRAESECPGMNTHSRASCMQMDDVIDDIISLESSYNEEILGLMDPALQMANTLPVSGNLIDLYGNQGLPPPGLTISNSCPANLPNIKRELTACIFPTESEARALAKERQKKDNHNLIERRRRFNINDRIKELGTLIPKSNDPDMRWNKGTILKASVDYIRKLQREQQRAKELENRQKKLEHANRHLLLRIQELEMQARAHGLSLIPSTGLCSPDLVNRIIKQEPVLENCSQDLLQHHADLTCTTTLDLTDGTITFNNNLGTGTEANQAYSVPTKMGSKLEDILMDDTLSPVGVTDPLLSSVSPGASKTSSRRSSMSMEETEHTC

Vero [2] = test: cells; type: functional, cell-based; conditions: Chlorocebus sabaeus
Vero [3] = test: cells; type: functional; conditions: Chlorocebus sabaeus
[4] = Luminescence Cell-Based Dose Retest to Confirm Inhibitors of Cancer Stem Cells. [Related pubchem assays (depositor defined):AID2717, AID2721]; type: functional; conditions: Homo sapiens
[5] = target: Heat shock protein HSP 90-alpha (Homo sapiens, UniProt P07900); type: functional, organism-based
Insulin-degrading enzyme [6] = target: T2, Insulin-degrading enzyme (Homo sapiens, UniProt P14735); test: recombinant IDE activation, cell-free – biochemical, fluorescence polarization, counter-screen for IDE activator project, dose response (AID 588681)
T2 sequence (P14735 whole entry): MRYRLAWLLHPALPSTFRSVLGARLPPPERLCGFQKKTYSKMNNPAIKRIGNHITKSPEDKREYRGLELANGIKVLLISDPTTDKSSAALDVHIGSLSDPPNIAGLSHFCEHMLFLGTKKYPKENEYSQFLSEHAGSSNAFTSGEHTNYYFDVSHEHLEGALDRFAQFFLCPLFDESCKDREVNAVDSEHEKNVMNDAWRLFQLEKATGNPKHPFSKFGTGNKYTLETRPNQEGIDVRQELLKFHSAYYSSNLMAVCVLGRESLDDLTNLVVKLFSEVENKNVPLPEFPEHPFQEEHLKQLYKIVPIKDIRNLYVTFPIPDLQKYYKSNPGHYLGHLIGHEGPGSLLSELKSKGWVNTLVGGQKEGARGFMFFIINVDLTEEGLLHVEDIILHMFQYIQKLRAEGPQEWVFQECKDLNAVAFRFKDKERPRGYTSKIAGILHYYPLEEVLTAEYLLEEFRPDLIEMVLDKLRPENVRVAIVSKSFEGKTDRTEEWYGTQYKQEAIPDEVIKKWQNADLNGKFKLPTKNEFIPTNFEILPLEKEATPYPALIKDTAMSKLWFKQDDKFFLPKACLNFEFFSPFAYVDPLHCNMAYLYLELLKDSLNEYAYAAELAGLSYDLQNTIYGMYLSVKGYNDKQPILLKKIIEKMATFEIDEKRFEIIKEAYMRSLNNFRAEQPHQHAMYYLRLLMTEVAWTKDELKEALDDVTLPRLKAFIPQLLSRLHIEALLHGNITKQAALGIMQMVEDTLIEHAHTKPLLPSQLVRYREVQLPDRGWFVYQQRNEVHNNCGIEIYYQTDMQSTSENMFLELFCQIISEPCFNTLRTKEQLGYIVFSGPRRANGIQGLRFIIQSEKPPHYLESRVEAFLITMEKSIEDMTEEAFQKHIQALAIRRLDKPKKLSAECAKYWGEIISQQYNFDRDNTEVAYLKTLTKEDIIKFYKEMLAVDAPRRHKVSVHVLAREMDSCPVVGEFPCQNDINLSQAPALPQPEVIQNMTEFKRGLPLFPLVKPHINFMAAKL

Insulin-degrading enzyme [7] = target: T2, Insulin-degrading enzyme; test: cellular IDE activation of Abeta substrate cleavage – fluorescence polarization, HEK cells, dose response (AID 588439); type: functional, cell-based
HEK293 [8] = test: membrane integrity loss in HEK cells – cell-based, fluorescence, cytotoxicity control for IDE activator project, dose response (AID 588440); type: functional; conditions: Homo sapiens;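 also: cytotoxicity by LDH release measuring loss of membrane integrity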
HEK293 [9] = test: optical interference in Abeta FP readout, dose response, artefact control for IDE activator project, biochemical, fluorescence polarization (AID 588442); type: functional, cell-based; conditions: Homo sapiens
[10] = potency of ADAM10 substrate cleavage blockers – biochemical, QFRET, dose response (AID 743254);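 also: ADAM10 enzyme with the DM2 quenched FRET peptide as substrate; EDANS fluorescence gain as the protease cuts the substrate; inhibitor potency against ADAM10 proteolytic activity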
[11] = target: Disintegrin and metalloproteinase domain-containing protein 17 (Homo sapiens, UniProt P78536); test: inhibition of ADAM17 substrate cleavage – biochemical, quenched FRET substrate, counter-screen for ADAM10 exosite inhibitor project, dose response (AID 743253)
Chain of Disintegrin and metalloproteinase domain-containing protein 17 (P78536 whole entry, the tested form may be a part): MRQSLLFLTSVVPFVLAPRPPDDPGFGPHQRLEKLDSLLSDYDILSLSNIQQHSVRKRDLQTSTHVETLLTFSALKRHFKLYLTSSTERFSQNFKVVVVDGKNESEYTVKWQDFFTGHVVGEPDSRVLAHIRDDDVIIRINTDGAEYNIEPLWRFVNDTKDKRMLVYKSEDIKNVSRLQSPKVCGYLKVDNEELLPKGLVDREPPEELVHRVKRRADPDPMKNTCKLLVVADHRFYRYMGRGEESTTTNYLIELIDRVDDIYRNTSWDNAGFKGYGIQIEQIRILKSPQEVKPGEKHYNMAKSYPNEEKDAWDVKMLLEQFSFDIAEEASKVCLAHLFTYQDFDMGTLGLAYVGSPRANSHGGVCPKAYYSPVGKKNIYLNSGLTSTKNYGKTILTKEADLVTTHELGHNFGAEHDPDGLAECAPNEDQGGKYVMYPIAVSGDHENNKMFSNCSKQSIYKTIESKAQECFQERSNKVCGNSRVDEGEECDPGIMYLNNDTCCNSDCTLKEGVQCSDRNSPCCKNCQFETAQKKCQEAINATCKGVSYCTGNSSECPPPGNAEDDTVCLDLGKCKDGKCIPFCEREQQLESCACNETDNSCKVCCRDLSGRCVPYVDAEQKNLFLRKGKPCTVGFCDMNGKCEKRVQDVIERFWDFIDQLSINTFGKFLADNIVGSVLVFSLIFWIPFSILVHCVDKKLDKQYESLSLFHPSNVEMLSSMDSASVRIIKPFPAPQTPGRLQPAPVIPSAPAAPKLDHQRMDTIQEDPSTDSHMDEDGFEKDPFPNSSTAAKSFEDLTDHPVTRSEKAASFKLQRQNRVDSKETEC

[12] = target: T3, Ubiquitin-conjugating enzyme E2 N (Homo sapiens, UniProt P61088); type: functional;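 also: Dose-response confirmation in a TR-FRET assay detecting UBC13-driven polyubiquitin chain formation, inhibition measured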
T3 sequence (P61088 whole entry): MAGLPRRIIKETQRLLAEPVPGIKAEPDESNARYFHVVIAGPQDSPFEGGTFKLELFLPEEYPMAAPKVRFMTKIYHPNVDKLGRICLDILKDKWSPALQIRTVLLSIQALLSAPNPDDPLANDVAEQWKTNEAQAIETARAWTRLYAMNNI

INS1 = test: INS-1E survival protection against cytokine death – cell-based, luminescence, retest, dose response (AID 449756); type: functional; conditions: Rattus norvegicus;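 also: cell death triggered by IL-1 beta plus TNF-alpha plus IFN-gamma mixture; protective hits raise ATP signal compared with cytokine alone wells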
Vero [13] = test: viability of Vero cells under compound – cytotoxicity control for flavivirus capping enzyme inhibitors (AID 588742); type: functional; conditions: Chlorocebus sabaeus

| SMILES | AC50 [4] | EC50 (Insulin-degrading enzyme [6]) | EC50 (Insulin-degrading enzyme [7]) | IC50 (HEK293 [8]) | EC50 (HEK293 [9]) | other results |
| --- | --- | --- | --- | --- | --- | --- |
| Cc1oc(-c2ccc(Cl)cc2)nc1CN1CCC(C(=O)NCCCN2CCCC(C)C2)CC1 (stereo not drawn) |  |  |  |  |  | AC50 [1]: 13.2 µM (active); IC50 (Vero [2]): 4.32 µM (active); CC50 (Vero [3]): 22.5 µM (active) |
| CC1(C)C=Cc2c(ccc3c2OC[C@H](c2ccc(O)cc2O)C3)O1 | 3.16 µM (active) | > 54.7 µM (inactive) | > 54.7 µM (inactive) | 22.1 µM (inactive) | > 54.7 µM (inactive) | AC50 [5]: 7.45 µM (active); IC50 [10]: 19.5 µM (inactive); IC50 [11]: > 69.5 µM (inactive) |
| CCOC(=O)/C=C/CN(C(=O)OC(C)(C)C)S(=O)(=O)N1CC=CC1 |  | > 54.7 µM (inactive) | > 54.7 µM (inactive) | > 89.2 µM (inactive) | > 55.9 µM (inactive) |  |
| COC(=O)C1=C(C)N(Cc2ccccc2)C(NCc2cccc(Cl)c2)=N[C@H]1c1cccc(F)c1 | 3.48 µM (active) | > 54.7 µM (inactive) | 25.2 µM (inactive) | 12.1 µM (inactive) | > 56 µM (inactive) | IC50 [12]: > 20 µM (inactive); AC50 (INS1): 7.03 µM (active) |
| O=C(Nc1ccncc1)c1cc2ccccc2cc1O |  |  |  |  |  | CC50 (Vero [13]): > 40 µM (active) |

From ChEMBL document CHEMBL1201862, “PubChem BioAssay data set” (2004)
